Assay results: patent US20100196492A1, “ELECTROSTATIC COATING OF PARTICLES FOR DRUG DELIVERY” (priority 2007, published 2010)

Key:
[1] = test system: HUVECs; assay: GFP transfection of confluent HUVECs in 12% serum, FACS; type: cell-based, Human; conditions: 40 w/w C32; N/P 1.55
Text: GFP Transfections. Fluorescent Activated Cell Sorting (FACS) and enhanced green fluorescent protein (EGFP) DNA were utilized to determine the efficacy of nanoparticle gene delivery. FACS data was interpreted by using a two-dimensional contour plot that compares the ratio of EGFP channel fluorescence (x-axis) to yellow channel autofluorescence (y-axis) for greater accuracy than a one-dimensional histogram as previously described. […] These experiments took place under conditions generally seen as difficult for in vitro transfection, but important for an in vivo cardiovascular application: fully confluent, and therefore non-dividing, primary cells in the presence of a high concentration of serum proteins.
GFP Transfections. Non-viral nanoparticle transfections were performed on confluent HUVECs in the presence of 12% serum. HUVECs were seeded (75,000 cells/well) into clear 24-well plates (Becton Dickinson, Franklin Lakes, N.J., USA) at 24 hours prior to transfection to allow for growth to confluence. Nanoparticles were constructed as previously mentioned using a 6 μg DNA basis per well. Then 150 μL of each polymer/DNA/peptide nanoparticle solution was added to 1.00 mL of FBS supplemented EGM-2 media (12% Serum). […]
Flow Cytometry. GFP expression was measured using Fluorescence Activated Cell Sorting (FACS) on a FACSCalibur (Becton Dickinson, San Jose, Calif., USA). […]

[2] = test system: LS174T cells; assay: Cytotoxicity of gelonin coated C32/DNA particles; type: cell-based; conditions: single treatment; 70 w/w C32, 600 ng DNA, 100 nM gelonin; colon cancer cells
Protocol: FIG. 14. Cytotoxity of composition on cells using a cytotoxic drug itself as the coating. 70 w/w C32 particles with 600 ng DNA were coated with 100 nM gelonin (a 28 kD protein) to test the cytotoxicity of the compostion in LS174T cells.
Unformulated gelonin is unable to reach the cytoplasm unassisted. In constrast, the gelonin coated nanoparticles are able to be effectively internalized into the cell and released from the endosomal compartment into the cytoplasm, where they are active.

Substance	transfection of HUVECs (FACS gating of GFP) [1]	cells killed [2]
EEEEEEEEEEEEGGGGGGGRDGS [E12-RDG]	do not	
gelonin		unable to kill any of the cells
